Source: PMC12280126, “Potent β-lactam-based tyrosyl-DNA phosphodiesterase 1 inhibitors identified by a virtual screen” (Scientific Reports, 2025)
“And” between values parts separate entries of the source, which are not always exact repeats. Identical values can stand only once. Counter-ions that a name gives are not always drawn.

target: T1, recombinant TDP1 (Homo sapiens, UniProt Q9NUW8); assay: in vitro gel-based fluorescence TDP1 catalytic assay; format: biochemical; settings: 40 pM recombinant TDP1, 1 nM N14Y DNA substrate, 15 min, room temperature; read-out: TDP1 IC50
T1 construct: incubated with 40 pM full-length recombinant TDP1 or TDP1 (148–608)
T1 sequence (Q9NUW8 whole entry): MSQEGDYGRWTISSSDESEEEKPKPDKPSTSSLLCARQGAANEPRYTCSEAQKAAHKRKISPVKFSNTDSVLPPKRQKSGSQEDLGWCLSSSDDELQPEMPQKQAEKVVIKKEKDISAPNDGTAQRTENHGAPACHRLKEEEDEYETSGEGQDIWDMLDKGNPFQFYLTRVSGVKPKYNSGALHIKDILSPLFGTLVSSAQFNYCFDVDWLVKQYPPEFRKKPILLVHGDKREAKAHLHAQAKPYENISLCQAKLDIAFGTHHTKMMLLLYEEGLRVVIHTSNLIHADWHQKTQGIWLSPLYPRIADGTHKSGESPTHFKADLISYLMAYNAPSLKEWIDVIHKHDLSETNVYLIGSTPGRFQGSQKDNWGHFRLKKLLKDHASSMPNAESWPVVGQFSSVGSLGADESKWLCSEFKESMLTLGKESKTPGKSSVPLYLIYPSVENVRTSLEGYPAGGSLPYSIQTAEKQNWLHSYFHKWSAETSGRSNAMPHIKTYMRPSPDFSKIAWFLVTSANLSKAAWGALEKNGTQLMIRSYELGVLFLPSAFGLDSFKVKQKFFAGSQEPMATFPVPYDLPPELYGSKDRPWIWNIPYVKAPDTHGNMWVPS
Experimental: We subjected select virtual screen hits to evaluation of TDP1 inhibitory potencies using in vitro gel-based fluorescence TDP1 catalytic assays (Fig. 2). […] To further explore this class of compounds, we purchased from TargetMol a library of approximately 90 β-lactams as 10 mM solutions in DMSO. […] We examined TDP1 inhibitory potencies of the compounds using the in vitro gel-based fluorescence assays as previously described[21]–[24]. Briefly, a 5’-Cy5-labeled DNA substrate (N14Y, 5’-Cy5-[…]-pY-3’, 1 nM) was incubated in TDP1 reaction buffer with recombinant TDP1 or truncated TDP1(148–608) (40 pM) in the absence or presence of inhibitors for 15 min at room temperature. […] The TDP1 inhibition IC50 values were calculated based on gel images of the cleavage product (N14P, 5’-Cy5-[…]-p-3’) (Fig. 3A and Table S2).
The inhibition of TDP1 and TDP2 were conducted according to gel-based methods as previously described[21]–[24],[45]. Briefly, 1 nM of the DNA substrate (N14Y, 5´Cy5-[…]-pY-3´) was incubated with 40 pM full-length recombinant TDP1 or TDP1 (148–608) in the absence or presence of inhibitors for 15 min at room temperature in TDP1 reaction buffer (50 mM Tris-HCl, pH 7.5, 80 mM KCl, 2 mM EDTA, 1 mM DTT, 40 µg/mL BSA and 0.01% Tween 20). The inhibition of TDP2 was also conducted by using similar conditions. […] The reactions of both TDP1 and TDP2 were stopped by adding an equal volume of gel loading buffer (99.5% (v/v) formamide, 5 mM EDTA). The samples were then subjected to a 20% denaturing PAGE gel followed by gel scanning using a Typhoon FLA 9500 scanner (GE Healthcare). The IC50 values of the TDP1 inhibitors were calculated by comparing the percentage of the cleavage product (N14P, 5´Cy5-[…]-p-3´) produced to that in the DMSO control. The IC50 values of the TDP2 inhibitors were calculated by comparing the percentage of the cleavage product (PN18, 5’-p-[…]-Cy5-3’) produced to that in the DMSO control.

Row | IC50 | Compound
1 | > 1 mM | CO/N=C(\C(=O)N[C@@H]1C(=O)N2C(C(=O)O)=C(CSc3nc(=O)c(=O)[nH]n3C)CS[C@H]12)c1csc(N)n1 [LG2, Ceftriaxone sodium]
2 | 0.0601 mM and 0.06 mM | Nc1nc2c(c(=O)[nH]1)N=C(CNc1ccc(C(=O)N[C@@H](CCC(=O)O)C(=O)O)cc1)CN2 [compound 10, dihydrofolic acid dihydrate]
3 | > 1 mM | CC1(C)S[C@@H]2[C@H](NC(=O)[C@H](N)c3ccccc3)C(=O)N2[C@H]1C(=O)OCOC(=O)[C@@H]1N2C(=O)C[C@H]2S(=O)(=O)C1(C)C [LE4, Sultamicillin Tosylate]
4 | > 1 mM | CO/N=C(\C(=O)N[C@@H]1C(=O)N2C(C(=O)O)=C(CSc3nc(C)c(CC(=O)O)s3)CS[C@H]12)c1csc(N)n1 [LA5, Cefodizime Sodium]
5 | > 1 mM | Cc1onc(-c2c(Cl)cccc2Cl)c1C(=O)N[C@@H]1C(=O)N2[C@@H]1SC(C)(C)[C@@H]2C(=O)O [LH7, Dicloxacillin sodium monohydrate]
6 | > 1 mM | CC1(C)S[C@@H]2[C@H](NC(=O)[C@H](NC(=O)N3CCNC3=O)c3ccccc3)C(=O)N2[C@H]1C(=O)O [LF4, Azlocillin sodium]
7 | > 1 mM | CC1(C)S[C@@H]2[C@H](/N=C/N3CCCCCC3)C(=O)N2[C@H]1C(=O)O [LE6, Mecillinam]
8 | > 1 mM | CO/N=C(\C(=O)N[C@@H]1C(=O)N2C(C(=O)OCOC(=O)C(C)(C)C)=C(/C=C\c3scnc3C)CS[C@H]12)c1csc(N)n1 [LF3, Cefditoren pivoxil]
9 | > 1 mM | Cc1nnc(SCC2=C(C(=O)O)N3C(=O)[C@@H](NC(=O)Cn4cnnn4)[C@H]3SC2)s1 [LA3, Cefazolin]
10 | > 1 mM | CC1(C)S[C@@H]2[C@H](NC(=O)Cc3ccccc3)C(=O)N2[C@H]1C(=O)O [LH9, Penicillin G sodium salt]
11 | > 1 mM | CCOc1ccc2ccccc2c1C(=O)N[C@@H]1C(=O)N2[C@@H]1SC(C)(C)[C@@H]2C(=O)O [LF5, nafcillin sodium]
12 | > 1 mM | CO/N=C(\C(=O)N[C@@H]1C(=O)N2C(C(=O)O)=C(COC(C)=O)CS[C@H]12)c1csc(N)n1 [LA1, Cefotaxime sodium]
13 | > 1 mM | N[C@@H](C(=O)N[C@@H]1C(=O)N2C(C(=O)O)=C(Cl)CS[C@H]12)c1ccccc1 [LE11, Cefaclor monohydrate]
14 | > 1 mM | CC1(C)S[C@@H]2[C@H](NC(=O)C(C(=O)O)c3ccccc3)C(=O)N2[C@H]1C(=O)O (some centres unmarked) [LG5, Carbenicillin disodium]
15 | 0.53 mM | Cc1nnc(SCC2=C(C(=O)O)N3C(=O)[C@@H](NC(=O)Cn4cnnn4)[C@H]3SC2)s1 [LH10, Cefazolin sodium salt]
16 | > 1 mM | C=CC1=C(C(=O)O)N2C(=O)[C@@H](NC(=O)/C(=N\O)c3csc(N)n3)[C@H]2SC1 [LB10, Cefdinir]
17 | > 1 mM | CN(C)CCn1nnnc1SCC1=C(C(=O)O)N2C(=O)[C@@H](NC(=O)Cc3csc(N)n3)[C@H]2SC1 [LE8, Cefotiam hydrochloride]
18 | 0.179 mM and 0.18 mM | CO[C@@]1(NC(=O)C(C(=O)O)c2ccc(O)cc2)C(=O)N2C(C(=O)O)=C(CSc3nnnn3C)CO[C@@H]21 (some centres unmarked) [LC4, Latamoxef sodium]
19 | > 1 mM | C[n+]1ccn(C[C@@]2(C)[C@H](C(=O)[O-])N3C(=O)C[C@H]3S2(=O)=O)n1 [LF2, AAI101]
20 | > 1 mM | CC1(C)S[C@@H]2[C@H](NC(=O)[C@H](C(=O)O)c3ccsc3)C(=O)N2[C@H]1C(=O)O [LB5, Ticarcillin sodium]
21 | > 1 mM | CO/N=C(\C(=O)N[C@@H]1C(=O)N2C(C(=O)O)=C(C[N+]3(C)CCCC3)CS[C@H]12)c1csc(N)n1 [LB1, Cefepime Dihydrochloride Monohydrate]
22 | > 1 mM | CC(=O)OCC1=C(C(=O)O)N2C(=O)[C@@H](NC(=O)CSC(=NC(C)C)NC(C)C)[C@H]2SC1 [LA4, Cefathiamidine]
23 | > 1 mM | CCN1CCN(C(=O)N[C@@H](C(=O)N[C@@H]2C(=O)N3[C@@H]2SC(C)(C)[C@@H]3C(=O)O)c2ccccc2)C(=O)C1=O [LG3, Piperacillin sodium salt]
24 | > 1 mM | CC1=C(C(=O)O)N2C(=O)[C@@H](NC(=O)[C@H](N)c3ccc(O)cc3)[C@H]2SC1 [LE1, Cefadroxil]
25 | > 1 mM | CO/N=C(\C(=O)N[C@@H]1C(=O)N2C(C(=O)OC(C)OC(C)=O)=C(COC(N)=O)CS[C@H]12)c1ccco1 (some centres unmarked) [LF10, Cepazine]
26 | > 1 mM | CC1=C(C(=O)O)N2C(=O)[C@@H](NC(=O)[C@H](N)c3ccccc3)[C@H]2SC1 [LH11, Cephalexin]
27 | > 1 mM | CCN1CCN(C(=O)N[C@@H](C(=O)N[C@@H]2C(=O)N3C(C(=O)O)=C(CSc4nnnn4C)CS[C@H]23)c2ccc(O)cc2)C(=O)C1=O [LB8, Cefoperazone]
28 | 0.111 mM | CO/N=C(\C(=O)N[C@@H]1C(=O)N2C(C(=O)O)=C(COC(N)=O)CS[C@H]12)c1ccco1 [LF11, Cefuroxime sodium]
29 | 0.62 ± 0.061 mM | C[C@H]1[C@H](NC(=O)/C(=N\OC(C)(C)C(=O)O)c2csc(N)n2)C(=O)N1S(=O)(=O)O [LH3, Aztreonam]

Row | Compound | IC50
30 | CC1=C(C(=O)O)N2C(=O)C(N)C2SC1 (centres unmarked) [LB12, Cefalexine EP IMpurity B] | > 1 mM
31 | Cefotiam Hexetil Hydrochloride [LC9] | > 1 mM
32 | CO/N=C(\C(=O)N[C@@H]1C(=O)N2C(C(=O)O)=C(CSc3nnnn3C)CS[C@H]12)c1csc(N)n1 [LG4, Cefmenoxime hydrochloride] | > 1 mM
33 | CC1(C)S[C@@H]2[C@H](NC(=O)C(c3ccccc3)S(=O)(=O)O)C(=O)N2[C@H]1C(=O)O (some centres unmarked) [LA6, Sulbenicillin Sodium] | > 1 mM
34 | Cc1onc(-c2ccccc2)c1C(=O)NC1C(=O)N2[C@@H]1SC(C)(C)[C@@H]2C(=O)O (some centres unmarked) [LH8, Oxacillin sodium] | > 1 mM
35 | CC(=O)OCC1=C(C(=O)O)N2C(=O)[C@@H](NC(=O)CSc3ccncc3)[C@H]2SC1 [LC8, Cephapirin Sodium] | 0.496 mM
36 | CO/N=C(\C(=O)N[C@@H]1C(=O)N2C(C(=O)[O-])=C(C[n+]3cccc4c3CCCC4)CS[C@H]12)c1csc(N)n1 [LD11, Cefquinome sulfate] | > 1 mM
37 | CO/N=C(\C(=O)N[C@@H]1C(=O)N2C(C(=O)O)=C(CSC(=O)c3ccco3)CS[C@H]12)c1csc(N)n1 [LG1, Sodium ceftiofur] | > 1 mM
38 | CO/N=C(\C(=O)N[C@@H]1C(=O)N2C(C(=O)O)=C(Cn3ccc(=N)n3CCO)CS[C@H]12)c1csc(N)n1 [LB7, Cefoselis Sulfate] | > 1 mM
39 | CO/N=C(\C(=O)N[C@@H]1C(=O)N2C(C(=O)[O-])=C(C[n+]3cccc4c3CCC4)CS[C@H]12)c1csc(N)n1 [LD3, Cefpirome sulfate] | > 1 mM
40 | C[C@@H](O)[C@H]1C(=O)N2C(C(=O)O)=C([C@H]3CCCO3)S[C@H]12 [LC7, Faropenem sodium] | > 1 mM
41 | NC(=O)c1cc[n+](CC2=C(C(=O)O)N3C(=O)[C@@H](NC(=O)[C@@H](c4ccccc4)S(=O)(=O)[O-])[C@H]3SC2)cc1 [LC1, Cefsulodine sodium] | > 1 mM
42 | Nc1nc(/C(=C/CC(=O)O)C(=O)N[C@@H]2C(=O)N3C(C(=O)O)=CCS[C@H]23)cs1 [LD10, Ceftibuten dihydrate] | > 1 mM
43 | O=C(O)C1=C(CSc2nnnn2CS(=O)(=O)O)CS[C@@H]2[C@H](NC(=O)[C@H](O)c3ccccc3)C(=O)N12 [LF9, Cefonicid sodium] | > 1 mM
44 | Cc1onc(-c2ccccc2Cl)c1C(=O)N[C@@H]1C(=O)N2[C@@H]1SC(C)(C)[C@@H]2C(=O)O [LH2, Cloxacillin sodium monohydrate] | > 1 mM
45 | Cc1cc(O)c(C(=O)N[C@@H](C(=O)N[C@@H]2C(=O)N3C(C(=O)O)=C(CSc4nnnn4C)CS[C@H]23)c2ccc(O)cc2)cn1 [LH1, Cefpiramide acid] | > 1 mM
46 | C[C@@H](O)[C@H]1C(=O)N2C(C(=O)O)=C(S[C@@H]3CN[C@H](CNS(N)(=O)=O)C3)[C@H](C)[C@H]12 [LE5, Doripenem] | 0.148 mM
47 | COCC1=C(C(=O)OC(C)OC(=O)OC(C)C)N2C(=O)[C@@H](NC(=O)/C(=N\OC)c3csc(N)n3)[C@H]2SC1 (some centres unmarked) [LD2, Cefpodoxime proxetil] | > 1 mM

same assay, conditions: TDP1 IC50, 40 pM recombinant TDP1, 1 nM N14Y DNA substrate, 15 min, room temperature

Row | IC50 | Compound
48 | > 1 mM | CON=C(C(=O)NC1C(=O)N2C(C(=O)OCOC(=O)C(C)(C)C)=C(C)CSC12)c1csc(N)n1 (centres unmarked) [LB3, Cefetamet pivoxil hydrochloride]

same assay, conditions: read-out: TDP1 IC50

Row | IC50 | Compound
49 | 0.595 mM | CC1(C)[C@H](C(=O)O)N2C(=O)C[C@H]2S1(=O)=O [LE7, Sulbactam]
50 | > 1 mM | CO[C@@]1(NC(=O)CSC[C@@H](N)C(=O)O)C(=O)N2C(C(=O)O)=C(CSc3nnnn3C)CS[C@@H]21 [LE3, Cefminox Sodium]
